Patent publication US20240376094A2, “SELECTIVE BCL-XL PROTAC COMPOUNDS AND METHODS OF USE” (Les Laboratoires Servier, priority 2021, published 2024)

How the values were obtained:
Bcl-xL = target: T1, Bcl-xL (Homo sapiens, UniProt Q07817); assay: HCT116 Bcl-xL degradation, capillary-based immunoassay (WES); type: cell-based; details: for DC50: HCT116, 24 h, 9-point serial dilution; for remaining activity at 0.01 µM / remaining activity at 0.1 µM: HCT-116, 24 h, % of untreated cells; for remaining activity at 0.01 µM: HCT116, 10 nM; for remaining activity at 0.1 µM: HCT116, 100 nM
T1 construct: Measured levels of Bcl-xL protein of HCT116 cells treated with the tested compounds; host or cells: HCT116
Method in brief: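 HCT116 cells treated 24 h with compound at 10/100 nM and/or 9-point dilution (quadruplicates), then lysed. Bcl-xL measured by capillary WES immunoassay, normalized to cofilin and expressed as % of untreated cells. DC50 from four-parameter curve fit.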

endogenous BCL-xL = target: T2, endogenous BCL-xL (Homo sapiens, UniProt Q07817); assay: Degradation of endogenous BCL-xL in COR-L105 (ProteinSimple Jess); type: cell-based; details: COR-L105, 24 h, COR-L105, dose 300 nM, read-out: % BCL-xL vs. Untreated, COR-L105
T2 construct: endogenous in cells; host or cells: COR-L105 (ECACC No. 92031918); NCI-H1650 (ATCC No. CRL-5883)
Method in brief: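 COR-L105 cells (2,000,000/well) treated 24 h at 37 °C with compound at 100–300 nM final, singlet, alongside untreated cells. RIPA lysates normalized by BCA to 1.5 mg/mL, then BCL-xL detected by capillary immunoassay (2–40 kDa Jess) comparing treated with untreated lysates.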

T2 sequence (Q07817 whole entry): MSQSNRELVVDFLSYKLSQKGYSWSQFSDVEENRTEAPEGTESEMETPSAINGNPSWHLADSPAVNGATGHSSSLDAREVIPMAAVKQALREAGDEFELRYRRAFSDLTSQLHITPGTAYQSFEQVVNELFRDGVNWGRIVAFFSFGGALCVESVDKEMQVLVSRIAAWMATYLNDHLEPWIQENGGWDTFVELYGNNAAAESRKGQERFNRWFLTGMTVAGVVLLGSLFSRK
T1 sequence (Q07817 whole entry): as above

Cc1ncsc1-c1ccc(CNC(=O)C2C[C@@H](O)CN2C(=O)C(NC(=O)CCCCCC(=O)N2CCN(CC#Cc3ccc(OCCCc4sc(N5CCCc6c5nnc(Nc5nc7ccccc7s5)c6C)nc4C(=O)O)c(F)c3)CC2)C(C)(C)C)cc1 (stereo in doubt) [Example 15, 2-[3-(1,3-benzothiazol-2-ylamino)-4-methyl-6,7-dihydro-5H-pyrido[2,3-c]pyridazin-8-yl]-5-[3-[2-fluoro-4-[3-[4-[7-[[(1S)-1-[(2S,4R)-4-hydroxy-2-[[4-(4-methylthiazol-5-yl)phenyl]methylcarbamoyl]pyrrolidine-1-carbonyl]-2,2-dimethyl-propyl]amino]-7-oxo-heptanoyl]piperazin-1-yl]prop-1-ynyl]phenoxy]propyl] thiazole-4-carboxylic acid]
DC50 (Bcl-xL): 0.462 nM
remaining activity at 0.01 µM (Bcl-xL): 39%
remaining activity at 0.1 µM (Bcl-xL): 23%

Cc1ncsc1-c1ccc([C@H](C)NC(=O)C2CC(O)CN2C(=O)C(NC(=O)CCCCCCCCCCCN2CCN(CC#Cc3ccc(OCCCc4sc(N5CCCc6c5nnc(Nc5nc7ccccc7s5)c6C)nc4C(=O)O)c(F)c3)CC2)C(C)(C)C)cc1 (stereo in doubt) [Example 31, 2-[3-(1,3-benzothiazol-2-ylamino)-4-methyl-6,7-dihydro-5H-pyrido[2,3-c]pyridazin-8-yl]-5-[3-[2-fluoro-4-[3-[4-[12-[[(1S)-1-[(2S,4R)-4-hydroxy-2-[[(1S)-1-[4-(4-methylthiazol-5-yl)phenyl]ethyl]carbamoyl]pyrrolidine-1-carbonyl]-2,2-dimethyl-propyl]amino]-12-oxo-dodecyl]piperazin-1-yl]prop-1-ynyl]phenoxy]propyl] thiazole-4-carboxylic acid]
DC50 (Bcl-xL): 1.22 nM
remaining activity at 0.01 µM (Bcl-xL): 11%
remaining activity at 0.1 µM (Bcl-xL): 6%

Cc1ncsc1-c1ccc([C@H](C)NC(=O)[C@@H]2C[C@@H](O)CN2C(=O)[C@@H](NC(=O)CCCCCCCCCCCCCCCN(C)CCOC23CC4(C)CC(C)(CC(Cn5ncc(-c6ccc(N7CCCc8c7nnc(Nc7nc9ccccc9s7)c8C)nc6C(=O)O)c5C)(C4)C2)C3)C(C)(C)C)cc1 [Example 1, 6-[3-(1,3-benzothiazol-2-ylamino)-4-methyl-6,7-dihydro-5H-pyrido[2,3-c]pyridazin-8-yl]-3-[1-[[3-[2-[[16-[[(1S)-1-[(2S,4R)-4-hydroxy-2-[[(1S)-1-[4-(4-methylthiazol-5-yl)phenyl]ethyl]carbamoyl]pyrrolidine-1-carbonyl]-2,2-dimethyl-propyl]amino]-16-oxo-hexadecyl]-methyl-amino]ethoxy]-5,7-dimethyl-1-adamantyl]methyl]-5-methyl-pyrazol-4-yl]pyridine-2-carboxylic acid]
DC50 (Bcl-xL): 0.329 nM
remaining activity at 0.01 µM (Bcl-xL): 21%
remaining activity at 0.1 µM (Bcl-xL): 9%

Cc1ncsc1-c1ccc([C@H](C)NC(=O)[C@@H]2C[C@@H](O)CN2C(=O)[C@@H](NC(=O)CCCCCCCCN(C)CCOC23CC4(C)CC(C)(CC(Cn5ncc(-c6ccc(N7CCCc8c7nnc(Nc7nc9ccccc9s7)c8C)nc6C(=O)O)c5C)(C4)C2)C3)C(C)(C)C)cc1 [Example 5, 6-[3-(1,3-benzothiazol-2-ylamino)-4-methyl-6,7-dihydro-5H-pyrido[2,3-c]pyridazin-8-yl]-3-[1-[[3-[2-[[9-[[(1S)-1-[(2S,4R)-4-hydroxy-2-[[(1S)-1-[4-(4-methylthiazol-5-yl)phenyl]ethyl]carbamoyl]pyrrolidine-1-carbonyl]-2,2-dimethyl-propyl]amino]-9-oxo-nonyl]-methyl-amino]ethoxy]-5,7-dimethyl-1-adamantyl]methyl]-5-methyl-pyrazol-4-yl]pyridine-2-carboxylic acid]
DC50 (Bcl-xL): 2.45 nM
remaining activity at 0.01 µM (Bcl-xL): 54%
remaining activity at 0.1 µM (Bcl-xL): 19%

Cc1ncsc1-c1ccc([C@H](C)NC(=O)[C@@H]2C[C@@H](O)CN2C(=O)[C@@H](NC(=O)CCCCCCCN(C)CCOC23CC4(C)CC(C)(CC(Cn5ncc(-c6ccc(N7CCCc8c7nnc(Nc7nc9ccccc9s7)c8C)nc6C(=O)O)c5C)(C4)C2)C3)C(C)(C)C)cc1 [Example 6, 6-[3-(1,3-benzothiazol-2-ylamino)-4-methyl-6,7-dihydro-5H-pyrido[2,3-c]pyridazin-8-yl]-3-[1-[[3-[2-[[8-[[(1S)-1-[(2S,4R)-4-hydroxy-2-[[(1S)-1-[4-(4-methylthiazol-5-yl)phenyl]ethyl]carbamoyl]pyrrolidine-1-carbonyl]-2,2-dimethyl-propyl]amino]-8-oxo-octyl]-methyl-amino]ethoxy]-5,7-dimethyl-1-adamantyl]methyl]-5-methyl-pyrazol-4-yl]pyridine-2-carboxylic acid]
DC50 (Bcl-xL): 2.94 nM
remaining activity at 0.01 µM (Bcl-xL): 69%
remaining activity at 0.1 µM (Bcl-xL): 22%

Cc1ncsc1-c1ccc(CNC(=O)[C@@H]2C[C@@H](O)CN2C(=O)[C@@H](NC(=O)CCCCCCC(=O)N2CCN(CC#Cc3ccc(OCCCc4sc(N5CCCc6c5nnc(Nc5nc7ccccc7s5)c6C)nc4C(=O)O)c(F)c3)CC2)C(C)(C)C)cc1 [Example 33, 2-(3-(benzo[d]thiazol-2-ylamino)-4-methyl-6,7-dihydropyrido [2,3-c]pyridazin-8(5H)-yl)-5-(3-(2-fluoro-4-(3-(4-(8-(((S)-1-((2S,4R)-4-hydroxy-2-((4-(4-methylthiazol-5-yl)benzyl)carbamoyl)pyrrolidin-1-yl)-3,3-dimethyl-1-oxobutan-2-yl)amino)-8-oxooctanoyl)piperazin-1-yl)prop-1-yn-1-yl)phenoxy)propyl) thiazole-4-carboxylic acid]
remaining activity at 0.3 µM (endogenous BCL-xL): 64.8%

Cc1ncsc1-c1ccc([C@H](C)NC(=O)[C@@H]2C[C@@H](O)CN2C(=O)[C@@H](NC(=O)CCCC(=O)N2CCN(CC#Cc3ccc(OCCCc4sc(N5CCCc6c5nnc(Nc5nc7ccccc7s5)c6C)nc4C(=O)O)c(F)c3)CC2)C(C)(C)C)cc1 [Example 35, 2-(3-(benzo[d]thiazol-2-ylamino)-4-methyl-6,7-dihydropyrido [2,3-c]pyridazin-8(5H)-yl)-5-(3-(2-fluoro-4-(3-(4-(5-(((S)-1-((2S,4R)-4-hydroxy-2-(((S)-1-(4-(4-methylthiazol-5-yl)phenyl)ethyl)carbamoyl)pyrrolidin-1-yl)-3,3-dimethyl-1-oxobutan-2-yl)amino)-5-oxopentanoyl)piperazin-1-yl)prop-1-yn-1-yl)phenoxy)propyl)thiazole-4-carboxylic acid]
remaining activity at 0.3 µM (endogenous BCL-xL): > 90%

Cc1ncsc1-c1ccc([C@H](C)NC(=O)[C@@H]2C[C@@H](O)CN2C(=O)[C@@H](NC(=O)CC23CC4CC(C2)CC(CC(=O)N2CCN(CC#Cc5ccc(OCCCc6sc(N7CCCc8c7nnc(Nc7nc9ccccc9s7)c8C)nc6C(=O)O)c(F)c5)CC2)(C4)C3)C(C)(C)C)cc1 [Example 42, 2-(3-(benzo[d]thiazol-2-ylamino)-4-methyl-6,7-dihydropyrido [2,3-c]pyridazin-8(5H)-yl)-5-(3-(2-fluoro-4-(3-(4-(2-((3S,5R)-3-(2-(((S)-1-((2S,4R)-4-hydroxy-2-(((S)-1-(4-(4-methylthiazol-5-yl)phenyl)ethyl)carbamoyl)pyrrolidin-1-yl)-3,3-dimethyl-1-oxobutan-2-yl)amino)-2-oxoethyl)adamantan-1-yl)acetyl)piperazin-1-yl)prop-1-yn-1-yl)phenoxy)propyl)thiazole-4-carboxylic acid]
remaining activity at 0.3 µM (endogenous BCL-xL): 33.3%
